The source of these data is US11814352B2, “Salts formed by 2-(1-acyloxy-n-pentyl) benzoic acid and basic amino acid or aminoguanidine, and preparation method and application thereof” (JIANGSU KANION PHARMACEUTICAL CO., LTD., priority 2018, dated 2023).

Series [1] deals with ADP induced platelet aggregation. Kind of series: In vitro anti-platelet aggregation, ADP induced (turbidimetry, PRP). In kind it is cell-based, rabbits. The following applies: read-out: IC50 ADP (10 μM); rabbit PRP, inducer ADP 10 μM, 37° C.
The nature of series [2]: Solubility test (saturated solubility in water). In kind it is physicochemical. The following applies: 25±2° C.; for solubility at 30 min: 25 °C, thermodynamic from solid. The method, then: Test method: 10 mg of a test sample (solid was ground into fine powder) was weighed and added to a certain amount of solvent at 25±2° C. (the temperature of a water bath is controlled at 25° C.), and the solution was shaken vigorously for 30 s every 5 min. The dissolution was observed within 30 min. When there were no visible solute particles or droplets, the test sample was regarded as completely dissolved.

Series [3] is described as follows: Preliminary stability of sample solution in water and methanol. Format: physicochemical. The following applies: 1 mg/mL stock prepared 2018 Jun. 25, analysed Jun. 29, Jul. 2, Jul. 7. The protocol:
2018 Jun. […] For each sample test, the stock solution was taken and diluted freshly.
2018 Jun. 29 200 μL of the stock solution was pipetted, 3800 μL of a mobile phase in the initial ratio was added, and 10 μL of a test sample with a concentration of 50 μg/mL was prepared for injection and analysis.
2018 Jul. 2 200 μL of the stock solution was pipetted, 3800 μL of a mobile phase in the initial ratio was added, and 10 μL of a test sample with a concentration of 50 μg/mL was prepared for injection and analysis.
2018 Jul. 7 200 μL of the stock solution was pipetted, 3800 μL of a mobile phase in the initial ratio was added, and 10 μL of a test sample with a concentration of 50 μg/mL was prepared for injection and analysis.
29, 2018 Jul. 2, and 2018 Jul.

The subject of series [4] is arteriovenous bypass thrombosis in rats. Put plainly: Effect on arteriovenous bypass thrombosis in rats. Format: in vivo, SD rats. The following applies: 10 mg/kg/day tail vein 7 days; for inhibition at 10 mg/kg/day: Rattus norvegicus, 168 h, vs model group. In outline: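 Male SD rats (250-280 g) dosed 10 mg/kg/day i.v. (tail vein, saline with 1% DMSO) for 7 days, n=8; vehicle controls. Two hours after the last dose, under pentobarbital, a carotid–jugular shunt holding a weighed suture ran for 15 min; thrombus wet and dry (24 h air-dried) weights taken.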

In series [5] the target is hERG potassium channel of CHO-hERG cells (Homo sapiens, UniProt Q12809). Put plainly: Effect on hERG potassium channel (automatic patch clamp). (The hERG channel carries a current that helps repolarise heart muscle cells.)
Sequence of hERG potassium channel of CHO-hERG cells (Q12809 whole entry): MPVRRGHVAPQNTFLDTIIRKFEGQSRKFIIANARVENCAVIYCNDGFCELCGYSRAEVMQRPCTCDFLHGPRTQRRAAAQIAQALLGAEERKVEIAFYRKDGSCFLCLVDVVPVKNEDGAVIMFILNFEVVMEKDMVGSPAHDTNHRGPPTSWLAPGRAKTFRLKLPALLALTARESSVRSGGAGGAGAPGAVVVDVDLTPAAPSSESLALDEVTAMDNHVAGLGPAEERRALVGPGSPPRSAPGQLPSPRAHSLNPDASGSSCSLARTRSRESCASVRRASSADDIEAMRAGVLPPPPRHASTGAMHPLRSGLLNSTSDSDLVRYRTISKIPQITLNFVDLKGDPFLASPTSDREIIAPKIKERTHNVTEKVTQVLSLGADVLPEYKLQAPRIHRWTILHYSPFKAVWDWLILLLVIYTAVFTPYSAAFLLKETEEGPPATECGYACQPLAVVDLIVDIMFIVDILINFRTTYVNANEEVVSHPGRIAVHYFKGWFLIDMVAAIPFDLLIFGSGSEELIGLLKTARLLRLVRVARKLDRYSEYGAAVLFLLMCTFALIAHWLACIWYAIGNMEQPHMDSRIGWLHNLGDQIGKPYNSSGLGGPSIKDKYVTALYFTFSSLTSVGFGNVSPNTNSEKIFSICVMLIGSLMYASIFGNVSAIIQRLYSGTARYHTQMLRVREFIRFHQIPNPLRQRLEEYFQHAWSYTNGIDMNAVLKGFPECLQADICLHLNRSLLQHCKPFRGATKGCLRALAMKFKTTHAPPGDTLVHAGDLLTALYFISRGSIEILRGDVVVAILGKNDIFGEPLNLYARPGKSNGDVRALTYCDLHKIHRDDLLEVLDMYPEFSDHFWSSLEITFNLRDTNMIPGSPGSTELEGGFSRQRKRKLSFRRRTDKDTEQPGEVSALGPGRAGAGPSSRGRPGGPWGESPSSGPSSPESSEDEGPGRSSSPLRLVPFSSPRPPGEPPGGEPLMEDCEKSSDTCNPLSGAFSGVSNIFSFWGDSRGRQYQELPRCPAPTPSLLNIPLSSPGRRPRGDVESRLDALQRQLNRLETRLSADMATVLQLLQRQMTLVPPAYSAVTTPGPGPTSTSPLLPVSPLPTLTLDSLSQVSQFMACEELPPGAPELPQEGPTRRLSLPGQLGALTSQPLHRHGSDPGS
Series [6] relates to histidine-deficient TA97, TA98, TA100 and TA102 strains of Salmonella typhimurium. Put plainly: Bacterial reverse mutation test (Ames test). Particulars: 0.1-1000 μg/dish, with and without S9.
Protocol: The test bacteria are the histidine-deficient TA97, TA98, TA100 and TA102 strains of Salmonella typhimurium, and the dose range of the test sample is 0.1-1000 μg/dish.
In series [7] the test system is AA induced platelet aggregation. Kind of series: In vitro anti-platelet aggregation, AA induced (turbidimetry, PRP). In kind it is cell-based, rabbits. The following applies: read-out: IC50 AA (1 mM); rabbit PRP, inducer AA 1 mM, 37° C.
The subject of series [8] is MCAO rats. Kind of series: Cerebral infarction, cerebral edema and nerve function of rats with focal cerebral ischemia (MCAO). Format: in vivo, SD rats. The following applies: MCAO rats; for inhibition at 10 mg/kg/day: Rattus norvegicus.
Where [9] appears, read: 10 mg/kg/day iv 3 days (combinations equimolar), first dose 2 h after reperfusion.

In brackets after ≈: the same amount, converted by molar mass. Several values for one entry are separate records, joined by “and”; a condition that tells them apart may be missing. Equal entries are not always repeated. Where two headings read alike, the source gives them in different places. Marks after values point to notes of the source that are not given here.

For the molecule `CCCC[C@H](OC(C)=O)c1ccccc1C(=O)O` [I1s, L-Arginine (S)-2-(1-Acetoxy-n-Pentyl) Benzoate], the IC50 was 720 ± 80 µM in series [1], > 40 µM in series [5] and 160 ± 20 µM in series [7]. In addition, the solubility at 30 min came to 136 mg/mL (≈ 544 mM) in series [2] (read-out: Saturated solubility in H2O, Mean) and 134 mg/mL (≈ 535 mM) in series [2] (read-out: Saturated solubility in H2O, dissolved sample amount (single determinations)). Further, the “Saturated solubility in H2O, dissolved sample amount (single determinations)” value in series [2] is 134.24 mg/mL and 138.23 mg/mL and 138.40 mg/mL. Also, in series [3], the “Stability of the sample solution in CH3OH” value is on record as “basically stable”. Also, the “Stability of the sample solution in H2O” value in series [3] was “basically stable”. The “Dry weight of thrombus” value in series [4] (2 h after last dose) is 5.52 ± 0.44. Also, the “Wet weight of thrombus” value in series [4] (2 h after last dose) is given as 20.23 ± 1.25**^. Further, the inhibition at 10 mg/kg/day in series [4] (read-out: Inhibition rate (dry weight of thrombus)) came to 45%; in series [4] (read-out: Inhibition rate (wet weight of thrombus)), 44.1%; in series [8] (10 mg/kg/day iv 3 days (combinations equimolar), first dose 2 h after reperfusion, read-out: Inhibition rate of cerebral edema), 98.8%; in series [8] (10 mg/kg/day iv 3 days (combinations equimolar), first dose 2 h after reperfusion, read-out: Inhibition rate of infarct volume), 78.2%. Further, the “Ames test result (mutagenicity)” value in series [6] is recorded as “negative”. For the same molecule, the Cerebral edema in series [8] (setting [9]) is 0.18 ± 3.96%. For the same molecule, in series [8] (setting [9]), the Infarct volume was 9.12 ± 1.18%. Moreover, the “Neurological function of rats with focal cerebral ischemia” value in series [8] (10 mg/kg/day iv, 2 h after reperfusion) is “significant neurological improvement effects”.

As usually defined, the IC50 is the concentration that gives 50% inhibition. Usually solubility stands for the concentration that dissolves in the medium under given conditions. In general, inhibition refers to the change of the read-out against control, counted positive when it falls.
